Results on one molecule are retold here after PMC12881670, “Investigation into ligand selectivity and bias at the formyl peptide receptor family” (The Journal of Pharmacology and Experimental Therapeutics, 2025).

Where a SMILES comes first, the peptide text is derived from it. The star is where a group is joined. For = O=C*

Assay [1] has as its system formyl peptide receptor family (Hs_FPR1, Hs_FPR2, Mm_Fpr1, Mm_Fpr2). The experiment in a line: Summary of main findings: receptor subtype selectivity and ligand bias across all readouts. Also noted: species or system human and mouse. The source says:
To determine ligand bias, a reference ligand is required, that is, “balanced” for the pathways tested.[37] […] We then used measurements of the activity ratio (Log (Emax/EC50)) for each receptor, ligand, and pathway in an attempt to observe any ligand bias (Fig. 6).

The target in assay [2] is T1, Hs_FPR2 (Homo sapiens, UniProt P25090).
T1 construct: expressed in transfected cells
T1 sequence (P25090 1-351): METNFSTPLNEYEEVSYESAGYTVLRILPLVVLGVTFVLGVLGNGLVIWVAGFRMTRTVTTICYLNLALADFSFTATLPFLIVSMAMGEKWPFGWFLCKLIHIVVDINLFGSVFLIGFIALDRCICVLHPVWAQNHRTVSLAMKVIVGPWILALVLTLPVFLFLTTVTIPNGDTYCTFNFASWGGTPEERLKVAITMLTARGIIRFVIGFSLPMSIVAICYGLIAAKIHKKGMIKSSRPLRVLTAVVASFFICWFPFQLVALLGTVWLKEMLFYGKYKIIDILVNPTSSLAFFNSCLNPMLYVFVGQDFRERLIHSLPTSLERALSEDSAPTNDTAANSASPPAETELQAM
The experiment in a line: ERK1/2 phosphorylation by Western blotting. Format: cell-based. The procedure: (§1) ERK phosphorylation was detected by Western blotting as previously described.[30] Briefly, HEK293 cells stably expressing FLAG-tagged FPRs were plated into 12-well culture plates until 90% confluent. On the day of the experiment, culture media was replaced with serum-free Dulbecco’s modified Eagle’s medium and incubated for 2 hours before stimulation with the indicated compounds. After 7 minutes, the media was removed and stimulation terminated by the addition of 100 μl sample buffer (0.5% SDS, Tris (pH 6.8), glycerol, at >90 °C).
(§2) All data were analyzed using GraphPad Prism using the nonlinear regression log(agonist) versus response (3 parameters) function for all assays, except binding, which was analyzed using the One site-FitlogIC50 function. Bias calculations were carried out following IUPHAR guidelines as described,[27]^,[37] and data were presented as the Δ Activity ratio (Log[EmaxB/EC50B])-(Log[EmaxA/EC50A]).
For orientation: A western blot detects proteins with antibodies after separation by electrophoresis.

In assay [3] the target is T2, Mm_Fpr2 (Mus musculus, UniProt O88536).
T2 construct: expressed in transfected cells
T2 sequence (O88536 1-351): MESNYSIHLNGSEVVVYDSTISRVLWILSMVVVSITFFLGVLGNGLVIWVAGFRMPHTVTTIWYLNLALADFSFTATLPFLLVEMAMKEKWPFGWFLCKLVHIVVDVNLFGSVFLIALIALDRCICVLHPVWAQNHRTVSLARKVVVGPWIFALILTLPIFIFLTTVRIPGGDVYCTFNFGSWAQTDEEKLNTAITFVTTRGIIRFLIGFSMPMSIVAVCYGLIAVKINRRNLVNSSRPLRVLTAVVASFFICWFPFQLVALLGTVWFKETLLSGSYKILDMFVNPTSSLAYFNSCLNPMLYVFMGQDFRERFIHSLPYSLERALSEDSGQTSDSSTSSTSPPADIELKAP
The assay is described as follows: ERK1/2 phosphorylation by Western blotting. In kind it is cell-based. The procedure: as §1, §2

Assay [4] has as its target T1, Hs_FPR2. The assay is described as follows: BRET receptor-RLuc8 interaction with Venus-mGsi. In kind it is cell-based. The procedure:
(§3) BRET1 assays to measure FPR interaction with Venus-mGsi and Arrestin 3-yellow fluorescent protein (YFP) were performed as previously described.[31]^,[32] Briefly, all FPRs C-terminally fused to Renilla Luciferase (donor, RLuc8) were transiently transfected along with either Venus-mGsi or YFP-Arrestin 3 (acceptor) at a ratio of 1:4. 24 hours post transfection, cells were replated into white-walled, 96-well plates and cultured for a further 24–48 hours. On the day of experimentation, growth media was aspirated and replaced with 80 μl Hanks Buffered Saline Solution and equilibrated for 30 minutes. Coelenterazine h was added to each well to a final concentration of 5 μM for 5 minutes before the addition of each compound, and the plate was incubated for a further 10 minutes at 37 °C before being read on a ClarioStar Plus, with luminescence measured at 480/20 nm (donor) and 530/20 (acceptor). The BRET ratio (acceptor/donor) was determined, and the background (untreated) subtracted to give the N-BRET value.
as §2

The target of assay [5] is T3, Mm_Fpr1 (Mus musculus, UniProt P33766).
T3 construct: expressed in transfected cells
T3 sequence (P33766 1-364): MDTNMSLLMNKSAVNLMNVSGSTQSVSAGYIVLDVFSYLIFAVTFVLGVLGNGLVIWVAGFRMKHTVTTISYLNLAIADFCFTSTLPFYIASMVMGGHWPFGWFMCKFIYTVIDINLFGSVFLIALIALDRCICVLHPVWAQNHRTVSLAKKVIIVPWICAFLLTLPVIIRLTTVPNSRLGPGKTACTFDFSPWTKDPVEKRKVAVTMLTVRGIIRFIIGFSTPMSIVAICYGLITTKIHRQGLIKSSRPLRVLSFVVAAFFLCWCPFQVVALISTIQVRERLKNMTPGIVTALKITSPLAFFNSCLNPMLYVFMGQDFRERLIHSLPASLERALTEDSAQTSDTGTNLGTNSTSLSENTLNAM
The assay is described as follows: BRET receptor-RLuc8 interaction with Venus-mGsi. Format: cell-based. The procedure:
as §3, §2

Assay [6] deals with T2, Mm_Fpr2. The experiment in a line: BRET receptor-RLuc8 interaction with Venus-mGsi. Format: cell-based. The procedure: as §3, §2
In assay [7] the target is T1, Hs_FPR2. The assay is described as follows: Internalization of FLAG-tagged receptors by flow cytometry. Format: cell-based. The arrangement: Emax: dose or concentration left out as unconfirmed. The procedure: (§4) Internalization of FPRs was measured by flow cytometry.[30] Briefly, cells were incubated with Alexa Fluor 657 conjugated M1 antiflag antibody (Sigma-Aldrich Cat# F3040, RRID:AB_439712) for 30 minutes at 37 °C to label surface receptors. Cells were then incubated with the indicated concentration of ligand before washing in PBS/0.04% EDTA to remove any remaining surface antibody. Remaining fluorescence was then measured using flow cytometry on either a BD FACScalibur or Attune, recording 5000 gated events. […] As a control, some samples were left untreated, and “strip only” was measured as a readout of constitutive endocytosis, and this value was subtracted from the data.
as §2
(In flow cytometry, cells or beads pass a laser one at a time.)

The target in a further assay is T4, Hs_FPR1 (Homo sapiens, UniProt P21462).
T4 construct: expressed in transfected cells
T4 sequence (P21462 1-350): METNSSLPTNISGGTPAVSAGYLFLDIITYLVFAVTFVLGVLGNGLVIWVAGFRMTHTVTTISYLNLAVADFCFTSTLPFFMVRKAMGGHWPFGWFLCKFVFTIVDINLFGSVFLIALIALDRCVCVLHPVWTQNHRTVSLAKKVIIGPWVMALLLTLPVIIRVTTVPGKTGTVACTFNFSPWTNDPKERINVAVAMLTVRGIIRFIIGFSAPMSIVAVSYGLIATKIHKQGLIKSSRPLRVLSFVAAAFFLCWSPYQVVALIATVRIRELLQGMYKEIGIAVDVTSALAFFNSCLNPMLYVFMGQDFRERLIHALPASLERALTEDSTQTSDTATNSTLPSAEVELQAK
Described as above. Format: cell-based. Also noted: Emax: dose or concentration left out as unconfirmed. Particulars: Hs_FPR1, 30 min, relative to 1 μM WKYMVm. The procedure:
as §4, §2

For assay [8], the target named is T3, Mm_Fpr1. The assay is described as above. In kind it is cell-based. Also noted: Emax: dose or concentration left out as unconfirmed. The procedure:
(§5) Internalization of FPRs was measured by flow cytometry.[30] Briefly, cells were incubated with Alexa Fluor 657 conjugated M1 antiflag antibody (Sigma-Aldrich Cat# F3040, RRID:AB_439712) for 30 minutes at 37 °C to label surface receptors. Cells were then incubated with the indicated concentration of ligand before washing in PBS/0.04% EDTA to remove any remaining surface antibody. Remaining fluorescence was then measured using flow cytometry on either a BD FACScalibur or Attune, recording 5000 gated events. […] As a control, some samples were left untreated, and “strip only” was measured as a readout of constitutive endocytosis, and this value was subtracted from the data. Vehicle control (0.1% DMSO) had no effect on internalization of receptors.
as §2

Assay [9] has as its target T2, Mm_Fpr2. Described as above. In kind it is cell-based. Also noted: Emax: dose or concentration left out as unconfirmed. The procedure:
as §5, §2

The target in assay [10] is T1, Hs_FPR2. The experiment in a line: BRET receptor-RLuc8 interaction with Arrestin 3-YFP. In kind it is cell-based. The procedure: as §3, §2
(Bioluminescence resonance energy transfer reports proximity on the nanometre scale.)

The target of assay [11] is T2, Mm_Fpr2. The description is as above. In kind it is cell-based. The procedure: as §3, §2

Turning to `CC[C@H](C)[C@H](NC(=O)[C@H](CC(C)C)NC(=O)[C@H](CCCCN)NC(=O)[C@H](CCSC)NC(=O)[C@H](CC(C)C)NC(=O)[C@@H]1CCCN1C(=O)[C@H](CC(N)=O)NC(=O)[C@@H](NC(=O)[C@H](CCCCN)NC(=O)[C@H](CCCNC(=N)N)NC(=O)[C@H](CCSC)NC(=O)[C@@H]1CCCN1C(=O)[C@@H](NC(=O)[C@H](CCSC)NC=O)[C@@H](C)O)[C@@H](C)CC)C(=O)N[C@@H](CC(N)=O)C(=O)O` [MCT-2, Formyl-MTPMRKINPLMKLIN] (For-MTPMRKINPLMKLIN-OH), the Bias result in [1] (summary grade of ligand bias relative to WKYMVm, key not given) was “No”. In [1] (summary of main findings, in words), the Notes entry was “Partial agonist”. Also, the Emax (commonly the maximal effect, on the per cent scale that the assay sets) was 93.9% at Hs_FPR2 [2]; 169% on Mm_Fpr2 [3]; 44.4% at Hs_FPR2 [4]; -8.19% on Mm_Fpr1 [5]; 25% on Mm_Fpr2 [6]; 63.3% at Hs_FPR2 [7]. For the same molecule, the Emax on Mm_Fpr1 [8] was 7.39%; on Mm_Fpr2 [9], 43.9%; at Hs_FPR2 [10] it was 51.8%; at Mm_Fpr2 [11] it was 12.1%. In addition, the “agonist-induced internalization (words)” value was “failed to show appreciable internalization” at Hs_FPR1 and “failed to show appreciable internalization” at Mm_Fpr1 [8] (Mm_Fpr1, 30 min, relative to 1 μM WKYMVm).
